Structures are written as SMILES.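 Assay format: 96-well plates, 48-hour exposure. Abbreviation: GI50, concentration required for 50% inhibition of growth.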 Calls of active or inactive are those of the source. Rule as the data show it: active = GI50 up to about 1.1 µM and inactive = higher. Some results are limits rather than exact numbers.

What all share (assay): growth of human tumour cells (NCI), 48 h
Assay [1] concerns ACHN.
The test system of assay [2] is CAKI-1.
Assay [3] concerns HCT-116.
Assay [4] has as its system HCT-15.
For assay [5], the system named is IGROV-1.
The subject of assay [6] is KM12.
Assay [7] relates to LOX IMVI.
Assay [8] deals with MOLT-4.
Assay [9] has as its system NCI-H226.
The test system of assay [10] is NCI-H522.
Assay [11] has as its system OVCAR-8.
Assay [12] deals with RPMI-8226.
Assay [13] concerns SF-295.
Assay [14] has as its system SF-539.
The test system of assay [15] is SK-MEL-5.
Assay [16] concerns SN12C.
The subject of assay [17] is SNB-19.
The test system of assay [18] is SW-620.
Assay [19] relates to U-251.
Assay [20] has as its system UACC-257.

Turning to `CCOP(=O)(OCC)C(c1ccc(F)cc1)N(C(=O)NC(F)(F)F)c1cccc(C(F)(F)F)c1` (stereo not given), the GI50 in assay [1] is > 100 µM (inactive); in assay [2] it was > 100 µM (inactive); in [3] it was 84.3 µM (inactive); in [4] it was greater than 100 µM; in assay [5], 65.8 µM (inactive); in assay [6], > 100 µM (inactive). In addition, the GI50 in assay [7] is > 100 µM (inactive); in assay [8] it was 61.9 µM (inactive); in [9], > 100 µM (inactive); in assay [10], 67.8 µM (inactive); in assay [11], > 100 µM (inactive); in assay [12], 63 µM (inactive). Moreover, the GI50 was > 100 µM (inactive) in assay [13]; > 100 µM (inactive) in [14]; > 100 µM (inactive) in [15]; > 100 µM (inactive) in assay [16]; 77.3 µM (inactive) in assay [17]; > 100 µM (inactive) in assay [18]. For the same compound, the GI50 in assay [19] and in [20] was > 100 µM (inactive) in each case.
`O=C(O)CCN1CCN(CCC(=O)O)CCN(CCC(=O)O)CC1`: the GI50 was > 100 µM (inactive) in assay [1]; > 100 µM (inactive) in assay [2]; 32.6 µM (inactive) in assay [3]; 91.2 µM in assay [4]; > 100 µM (inactive) in assay [5]; 69.7 µM (inactive) in assay [6]. For the same compound, the GI50 was 82.8 µM (inactive) in assay [7]; > 100 µM (inactive) in [8]; > 100 µM (inactive) in assay [9]; > 100 µM (inactive) in [10]; > 100 µM (inactive) in assay [11]; 83.4 µM (inactive) in assay [12]. For the same compound, the GI50 in assay [13] was > 100 µM (inactive); in [14], > 100 µM (inactive); in assay [15] it was 74 µM (inactive); in assay [16], > 100 µM (inactive); in [17], > 100 µM (inactive); in [18], 44.4 µM (inactive). Moreover, the GI50 in assay [19] and in assay [20] was > 100 µM (inactive) each time.
As for `C=C(Cl)[C@](Cl)(CBr)CC[C@@H](Br)C(C)(C)Cl` [HALOMON], the GI50 in assay [1] was 1.01 µM (active); in assay [2], 0.337 µM (active); in [3], 0.392 µM (active); in assay [4], 2.01 µM; in assay [5] it was 6.67 µM (inactive); in [6] it was 0.927 µM (active). The GI50 in [7] was 17.7 µM (inactive); in assay [8], 12.8 µM (inactive); in assay [9], 17 µM (inactive); in assay [10], 15.5 µM (inactive); in assay [11], 1.27 µM (inactive); in assay [12], 0.0607 µM (active). For the same compound, the GI50 in assay [13] is 1.02 µM (active); in assay [14] it was 0.562 µM (active); in [15], 12.3 µM (inactive); in assay [16], 3.23 µM (inactive); in [17], 1.46 µM (inactive); in assay [18], 2.07 µM (inactive). The GI50 in assay [19] was 0.181 µM (active); in assay [20], 1.4 µM (inactive).
